Earlier results, collected in patent US20230210786A1, “METHOD FOR SO[…], […] […] CANNABINOIDS” (ATHENION AG, priority 2020, published 2023).

Settings: in vivo

In the case of CCCCCc1cc(O)c2c(c1)OC(C)(C)[C@@H]1CCC(C)=C[C@@H]21 [THC, (-)-trans-Δ^9-tetrahydrocannabinol], the “apparent volume of distribution” value is listed as 10 L/kg and the plasma protein binding is listed as “ca. 97%”.
